Experimental data as given in ChEMBL document CHEMBL3875175, “Multi-targeting exploration of new 2-aminothiazolyl quinolones: Synthesis, antimicrobial evaluation, interaction with DNA, combination with topoisomerase IV and penetrability into cells” (Eur J Med Chem, 2016).
Converted amounts (≈) assume the structure as drawn. The source made the active and inactive calls. The rule behind the calls is not given here.

Tests used:
[1] = tested on: Salmonella typhi; assay: Antibacterial activity against Bacillus typhi after 24 hrs by two fold serial dilution method; type: functional, Salmonella enterica subsp. enterica serovar Typhi; settings: Salmonella enterica
[2] = tested on: Proteus vulgaris; assay: Antibacterial activity against Bacillus proteus ATCC 13315 after 24 hrs by two fold serial dilution method; type: functional; settings: ATCC 13315, 24 h
[3] = tested on: Escherichia coli; assay: Antibacterial activity against Escherichia coli JM109 after 24 hrs by two fold serial dilution method; type: functional; settings: JM109, 24 h
[4] = tested on: Shigella dysenteriae; assay: Antibacterial activity against Shigella dysenteriae after 24 hrs by two fold serial dilution method; type: functional
[5] = tested on: Escherichia coli; assay: Antibacterial activity against Escherichia coli DH52 after 24 hrs by two fold serial dilution method; type: functional; settings: DH52, 24 h
[6] = tested on: Staphylococcus aureus; assay: Antibacterial activity against methicillin-resistant Staphylococcus aureus N315 after 24 hrs by two fold serial dilution method; type: functional; settings: N315, 24 h
[7] = tested on: Bacillus spizizenii; assay: Antibacterial activity against Bacillus subtilis ATCC 6633 after 24 hrs by two fold serial dilution method; type: functional; settings: ATCC 6633, 24 h
[8] = tested on: Staphylococcus aureus; assay: Antibacterial activity against Staphylococcus aureus ATCC 25923 after 24 hrs by two fold serial dilution method; type: functional; settings: ATCC 25923, 24 h
[9] = tested on: Pseudomonas aeruginosa; assay: Antibacterial activity against Pseudomonas aeruginosa ATCC 27853 after 24 hrs by two fold serial dilution method; type: functional; settings: ATCC 27853, 24 h
[10] = tested on: Micrococcus luteus; assay: Antibacterial activity against Micrococcus luteus ATCC 4698 after 24 hrs by two fold serial dilution method; type: functional; settings: NCTC 2665, 24 h
[11] = tested on: Candida albicans; assay: Antifungal activity against Candida albicans ATCC 76615 after 24 hrs by two fold serial dilution method; type: functional; settings: ATCC 76615, 24 h
[12] = Antifungal activity against Candida mycoderma after 24 hrs by two fold serial dilution method; type: functional; settings: Pichia norvegensis
[13] = tested on: Aspergillus flavus; assay: Antifungal activity against Aspergillus flavus after 24 hrs by two fold serial dilution method; type: functional
[14] = Antifungal activity against Candida utilis after 24 hrs by two fold serial dilution method; type: functional; settings: Cyberlindnera jadinii
[15] = tested on: Saccharomyces cerevisiae; assay: Antifungal activity against Beer yeast after 24 hrs by two fold serial dilution method; type: functional
[16] = tested on: Shigella dysenteriae; assay: Potency index, ratio of norfloxacin MIC to compound MIC for Shigella dysenteriae; type: functional
[17] = tested on: Shigella dysenteriae; assay: Potency index, ratio of chloromycin MIC to compound MIC for Shigella dysenteriae; type: functional
[18] = tested on: Salmonella typhi; assay: Potency index, ratio of chloromycin MIC to compound MIC for Bacillus typhi; type: functional, Salmonella enterica subsp. enterica serovar Typhi
[19] = organism: Bos taurus; assay: Binding affinity to calf thymus DNA by UV-Visible spectroscopic method
[20] = tested on: Staphylococcus aureus; assay: Bactericidal activity against methicillin-resistant Staphylococcus aureus N315 assessed as log reduction in bacterial count at 4 times MIC up to 1 hr by time-kill kinetic assay; type: functional
[21] = tested on: Staphylococcus aureus; assay: Induction of membrane permeabilization in methicillin-resistant Staphylococcus aureus N315 at 12 times MIC measured for 2 hrs by propidium iodide staining based fluorescence assay; type: functional
[22] = tested on: Staphylococcus aureus; assay: Antibacterial activity against methicillin-resistant Staphylococcus aureus N315 after 15 days by serial passage resistance development assay; type: functional
[23] = organism: Bos taurus; assay: Binding affinity to calf thymus DNA assessed as DNA intercalation up to 1.75 x 10^-5mol/L by neutral red dye based UV-Visible spectroscopic method
[24] = organism: Bos taurus; assay: Binding affinity to calf thymus DNA assessed as hypochromism up to 9 x 10^-5mol/L by UV-Visible spectroscopic method
[25] = tested on: Salmonella typhi; assay: Induction of membrane permeabilization in Bacillus typhi at 12 times MIC measured for 2 hrs by propidium iodide staining based fluorescence assay; type: functional; settings: Salmonella enterica subsp. enterica serovar Typhi
[26] = tested on: Salmonella typhi; assay: Potency index, ratio of norfloxacin MIC to compound MIC for Bacillus typhi; type: functional, Salmonella enterica subsp. enterica serovar Typhi
[27] = tested on: Aspergillus flavus; assay: Potency index, ratio of fluconazole MIC80 to compound MIC80 for Aspergillus flavus; type: functional
[28] = Cytotoxicity against mouse L929 cells assessed as reduction in cell viability after 48 hrs by MTT assay; type: toxicity

SMILES | MIC [1] | MIC [2] | MIC [3] | MIC [4] | MIC [5] | MIC [6] | MIC [7] | MIC [8] | MIC [9] | MIC [10] | MIC80 [11] | MIC80 [12] | MIC80 [13] | MIC80 [14] | MIC80 [15] | further results
CCn1cc(C(=O)O)c(=O)c2cc(F)c(N3CCNCC3)cc21 [NORFLOXACIN] | 4 µg/mL (≈ 12.5 µM) | 8 µg/mL (≈ 25.1 µM) | 1 µg/mL (≈ 3.13 µM) | 16 µg/mL (≈ 50.1 µM) | 1 µg/mL (≈ 3.13 µM) | 8 µg/mL (≈ 25.1 µM) | 4 µg/mL (≈ 12.5 µM) | 2 µg/mL (≈ 6.26 µM) | 16 µg/mL (≈ 50.1 µM) | 2 µg/mL (≈ 6.26 µM) | – | – | – | – | – | –
Nc1ncc(-c2cn(Cc3ccccc3Cl)c3c(F)cc(F)cc3c2=O)s1 | 128 µg/mL (≈ 317 µM) | 256 µg/mL (≈ 634 µM) | 128 µg/mL (≈ 317 µM) | 64 µg/mL (≈ 158 µM) | 128 µg/mL (≈ 317 µM) | 64 µg/mL (≈ 158 µM) | 256 µg/mL (≈ 634 µM) | 128 µg/mL (≈ 317 µM) | 32 µg/mL (≈ 79.2 µM) | 64 µg/mL (≈ 158 µM) | 128 µg/mL (≈ 317 µM) | 64 µg/mL (≈ 158 µM) | 64 µg/mL (≈ 158 µM) | 64 µg/mL (≈ 158 µM) | 128 µg/mL (≈ 317 µM) | –
Nc1ncc(-c2cn(Cc3ccccc3F)c3c(F)cc(F)cc3c2=O)s1 | 8 µg/mL (≈ 20.7 µM) | 128 µg/mL (≈ 330 µM) | 64 µg/mL (≈ 165 µM) | 32 µg/mL (≈ 82.6 µM) | 64 µg/mL (≈ 165 µM) | 64 µg/mL (≈ 165 µM) | 64 µg/mL (≈ 165 µM) | 32 µg/mL (≈ 82.6 µM) | 128 µg/mL (≈ 330 µM) | 64 µg/mL (≈ 165 µM) | 64 µg/mL (≈ 165 µM) | 64 µg/mL (≈ 165 µM) | 32 µg/mL (≈ 82.6 µM) | 128 µg/mL (≈ 330 µM) | 64 µg/mL (≈ 165 µM) | –
Nc1ncc(-c2cn(Cc3cccc(F)c3)c3c(F)cc(F)cc3c2=O)s1 | 32 µg/mL (≈ 82.6 µM) | 32 µg/mL (≈ 82.6 µM) | 128 µg/mL (≈ 330 µM) | 64 µg/mL (≈ 165 µM) | 128 µg/mL (≈ 330 µM) | 32 µg/mL (≈ 82.6 µM) | 128 µg/mL (≈ 330 µM) | 64 µg/mL (≈ 165 µM) | 64 µg/mL (≈ 165 µM) | 128 µg/mL (≈ 330 µM) | 64 µg/mL (≈ 165 µM) | 32 µg/mL (≈ 82.6 µM) | 64 µg/mL (≈ 165 µM) | 64 µg/mL (≈ 165 µM) | 64 µg/mL (≈ 165 µM) | –
CCCCCn1cc(-c2cnc(N)s2)c(=O)c2cc(F)cc(F)c21 | 16 µg/mL (≈ 45.8 µM) | 64 µg/mL (≈ 183 µM) | 64 µg/mL (≈ 183 µM) | 16 µg/mL (≈ 45.8 µM) | 32 µg/mL (≈ 91.6 µM) | 32 µg/mL (≈ 91.6 µM) | 64 µg/mL (≈ 183 µM) | 256 µg/mL (≈ 733 µM) | 16 µg/mL (≈ 45.8 µM) | 128 µg/mL (≈ 366 µM) | 64 µg/mL (≈ 183 µM) | 32 µg/mL (≈ 91.6 µM) | 16 µg/mL (≈ 45.8 µM) | 64 µg/mL (≈ 183 µM) | 128 µg/mL (≈ 366 µM) | –
O=C(N[C@H](CO)[C@H](O)c1ccc([N+](=O)[O-])cc1)C(Cl)Cl [CHLORAMPHENICOL] | 32 µg/mL (≈ 99 µM) | 32 µg/mL (≈ 99 µM) | 32 µg/mL (≈ 99 µM) | 16 µg/mL (≈ 49.5 µM) | 32 µg/mL (≈ 99 µM) | 16 µg/mL (≈ 49.5 µM) | 32 µg/mL (≈ 99 µM) | 16 µg/mL (≈ 49.5 µM) | 32 µg/mL (≈ 99 µM) | 8 µg/mL (≈ 24.8 µM) | – | – | – | – | – | –
CCCn1cc(-c2cnc(N)s2)c(=O)c2cc(F)cc(F)c21 | 16 µg/mL (≈ 49.8 µM) | 64 µg/mL (≈ 199 µM) | 64 µg/mL (≈ 199 µM) | 4 µg/mL (≈ 12.4 µM) | 64 µg/mL (≈ 199 µM) | 32 µg/mL (≈ 99.6 µM) | 32 µg/mL (≈ 99.6 µM) | 16 µg/mL (≈ 49.8 µM) | 16 µg/mL (≈ 49.8 µM) | 16 µg/mL (≈ 49.8 µM) | 32 µg/mL (≈ 99.6 µM) | 32 µg/mL (≈ 99.6 µM) | 32 µg/mL (≈ 99.6 µM) | 64 µg/mL (≈ 199 µM) | 16 µg/mL (≈ 49.8 µM) | Ratio [16]: 4; Ratio [17]: 4
Nc1ncc(-c2cn(Cc3ccc([N+](=O)[O-])cc3)c3c(F)cc(F)cc3c2=O)s1 | 64 µg/mL (≈ 154 µM) | 128 µg/mL (≈ 309 µM) | 128 µg/mL (≈ 309 µM) | 256 µg/mL (≈ 618 µM) | 32 µg/mL (≈ 77.2 µM) | 128 µg/mL (≈ 309 µM) | 128 µg/mL (≈ 309 µM) | 256 µg/mL (≈ 618 µM) | 64 µg/mL (≈ 154 µM) | 128 µg/mL (≈ 309 µM) | 32 µg/mL (≈ 77.2 µM) | 128 µg/mL (≈ 309 µM) | 64 µg/mL (≈ 154 µM) | 256 µg/mL (≈ 618 µM) | 64 µg/mL (≈ 154 µM) | –
C#CCn1cc(-c2cnc(N)s2)c(=O)c2cc(F)cc(F)c21 | 1 µg/mL (≈ 3.15 µM) | 32 µg/mL (≈ 101 µM) | 32 µg/mL (≈ 101 µM) | 8 µg/mL (≈ 25.2 µM) | 16 µg/mL (≈ 50.4 µM) | 8 µg/mL (≈ 25.2 µM) | 16 µg/mL (≈ 50.4 µM) | 8 µg/mL (≈ 25.2 µM) | 16 µg/mL (≈ 50.4 µM) | 32 µg/mL (≈ 101 µM) | 16 µg/mL (≈ 50.4 µM) | 8 µg/mL (≈ 25.2 µM) | 8 µg/mL (≈ 25.2 µM) | 32 µg/mL (≈ 101 µM) | 8 µg/mL (≈ 25.2 µM) | Ratio [18]: 32; K [19]: 0.538 ×10⁴ L/mol; Activity [20]: 3 log10CFU/ml; Activity [21]: Active; Activity [22]: Active; Activity [23]: Active; Activity [24]: Active; Activity [25]: Active; Ratio [26]: 4; Ratio [27]: 32; IC50 at 48 h [28]: 289 µg/mL (≈ 911 µM)
